Reference: patent EP0761658A1, “Azole-phenyl urea derivatives as ACAT inhibitors and their production” (NIHON NOHYAKU CO., LTD., priority 1995, dated 1997)

Legend:
[1] = test system: rats fed on a high-cholesterol diet; assay: Serum cholesterol lowering activity in rats fed on a high-cholesterol diet; format: in vivo, Male Sprague-Dawley rats; settings: Rattus norvegicus, 96 h; total serum cholesterol; 30 mg per kg of body weight per day for 4 days, suspended in 0.5% carboxymethyl cellulose; blood 24 hours after last administration; read-out: Reduction rate (%)
Procedure: Male Sprague-Dawley rats of 6-week-old were divided into three groups. The first group (normal group) was fed an ordinary diet for 4 days. The second group (control group) was fed a high cholesterol diet (containing 1.0% cholesterol, 1.0% cholic acid and 8.5% coconut oil) for 4 days. The third group (treated group) was fed a high cholesterol diet and was treated with a compound for 4 days.
Simultaneously with the beginning of the above feeding, the compound was suspended in a 0.5% carboxymethyl cellulose solution and administered to the treated group, in a dose of 30 mg (in terms of the compound) per kg of body weight per day for 4 days. A 0.5% carboxymethyl cellulose solution was also administered to the normal group and the control group in the same manner as above.
After 24 hours of the last administration, blood was collected and the cholesterol concentration in serum was measured by an enzymatic method. The reduction rate of the total serum cholesterol concentration was calculated from values obtained for the three groups by the following equation. Choresterol reduction rate (%) =((A) - (B))/((A) - (C))x 100 [formula] wherein A: the serum cholesterol concentration of the control group. B: the serum cholesterol concentration of the treated group. C: the serum cholesterol concentration of the normal group.

[2] = test system: acyl-CoA:cholesterol acyltransferase (ACAT); assay: Inhibitory activity on acyl-CoA:cholesterol acyltransferase (ACAT), microsomal fraction of intestinal mucosa, [1-14C]oleyl-CoA incorporation into cholesterol esters; format: biochemical, white rabbit; settings: rabbit intestinal mucosa microsomes
Procedure: The enzyme used in the test was prepared according to the method of Heider et al. [J. Lipid Res. 24, 1127 (1983)]. A white rabbit was killed by blood-letting under anesthesia, after which its intestinal mucosa was collected and then homogenized, and microsomal fraction was obtained by stepwise centrifugation. The microsomal fraction was suspended in 0.154 M phosphate buffer (pH 7.4) and stored at -80°C until use.
ACAT activity was determined by a modification of the method of Helgerud et al. [J. Lipid Res. 22, 271 (1981)] by measuring radioactivity incorporated into cholesterol esters from [1-^14C]oleyl-CoA, as an indication. As to the ACAT-inhibitory activity of each compound to be tested, the inhibition rate was calculated by the following equation. Inhibition rate (%) =([ACAT activity of control group which was given solvent]-[ACAT activity of group treated with compound to be tested])/([ACAT activity of control group which was given solvent])x 100 [formula]

[3] = compound concentration 1 (head prints '1 | 0.01 µm')

Inhibition rate % ([2]; compound concentration 0.01 µm) [%]	Inhibition rate % [2, 3] [%]	Compound	inhibition in vivo at 30 mg/kg [1] [%]
	99.8	CCc1cccc(CC)c1NC(=O)Nc1sc(N2CCCCC2)nc1-c1ccccc1 [Compound 17, N-(2,6-Diethylphenyl)-N'-[4-phenyl-2-(N-piperidino)thiazol-5-yl)urea]	
	99.9	CC(C)c1cccc(C(C)C)c1NC(=O)Nc1sc(N2CCCCC2)nc1-c1ccccc1Cl [Compound 19, N-[4-(2-Chlorophenyl)-2-(N-piperidino)thiazol-5-yl]-N'-(2,6-diisopropylphenyl)urea]	
	99.8	CC(C)c1cccc(C(C)C)c1NC(=O)Nc1sc(N2CCOCC2)nc1-c1ccccc1Cl [Compound 21, N-[4-(2-Chlorophenyl)-2-(N-morpholino)thiazol-5-yl]-N'-(2,6-diisopropylphenyl)urea]	
59.4	99.6	CC(C)c1cccc(C(C)C)c1NC(=O)Nc1nc(-c2ccccc2)sc1-c1ccccc1Cl [Compound 23, N-[5-(2-Chlorophenyl)-2-phenylthiazol-4-yl]-N'-(2,6-diisopropylphenyl)urea]	108
	97.9	CC(C)c1cccc(C(C)C)c1NC(=O)Nc1nc(N2CCOCC2)sc1-c1ccccc1Cl [Compound 24, N-[5-(2-Chlorophenyl)-2-(N-morpholino)thiazol-4-yl]-N'-(2,6-diisopropylphenyl)urea]	
88.1		Cc1nc(NC(=O)Nc2c(C(C)C)cccc2C(C)C)c(-c2ccccc2Cl)s1 [Compound 25, N-[5-(2-Chlorophenyl)-2-methylthiazol-4-yl]-N'-(2,6-diisopropylphenyl)urea]	39.1
51.4		CCc1cccc(CC)c1NC(=O)Nc1nc(C)sc1-c1ccccc1Cl [Compound 26, N-[5-(2-Chlorophenyl)-2-methylthiazol-4-yl]-N'-(2,6-diethylphenyl)urea]	
86.5		Cc1ccccc1-c1sc(-c2ccccc2)nc1NC(=O)Nc1c(C(C)C)cccc1C(C)C [Compound 27, N-(2,6-Diisopropylphenyl)-N'-[5-(2-methylphenyl)-2-phenylthiazol-4-yl]urea]	61.7
64.1		CCc1cccc(CC)c1NC(=O)Nc1nc(-c2ccccc2)sc1-c1ccccc1C [Compound 28, N-(2,6-Diethylphenyl)-N'-[5-(2-methylphenyl)-2-phenylthiazol-4-yl]urea]	87.8
90.2		Cc1nc(NC(=O)Nc2c(C(C)C)cccc2C(C)C)c(-c2ccccc2C)s1 [Compound 29, N-(2,6-Diisopropylphenyl)-N'-[2-methyl-5-(2-methylphenyl)thiazol-4-yl]urea]	46.1
76.8		CSc1ccccc1-c1sc(-c2ccccc2)nc1NC(=O)Nc1c(C(C)C)cccc1C(C)C [Compound 30, N-(2,6-Diisopropylphenyl)-N'-[5-(2-methylthiophenyl)-2-phenylthiazol-4-yl]urea]	75.7
70.6		Cc1ccccc1-c1oc(-c2ccccc2)nc1NC(=O)Nc1c(C(C)C)cccc1C(C)C [Compound 31, N-(2,6-Diisopropylphenyl)-N'-[5-(2-methylphenyl)-2-phenyloxazol-4-yl]urea]	59.8
62.0		Cc1ccccc1-c1nc(-c2ccccc2)oc1NC(=O)Nc1c(C(C)C)cccc1C(C)C [Compound 33, N-(2,6-Diisopropylphenyl)-N'-[4-(2-methylphenyl)-2-phenyloxazol-5-yl]urea]	73.2
33.5	99.6	CC(C)c1cccc(C(C)C)c1NC(=O)Nc1nc(-c2ccccc2)n(C)c1-c1ccccc1Cl [Compound 35, N-[5-(2-Chlorophenyl)-1-methyl-2-phenylimidazol-4-yl]-N'-(2,6-diisopropylphenyl)urea]	
	79.5	CC(C)c1cccc(C(C)C)c1NC(=O)Nc1c(-c2ccccc2Cl)nc(-c2ccccc2)n1Cc1ccccc1 [Compound 36, N-[1-Benzyl-4-(2-chlorophenyl)-2-phenylimidazol-5-yl]-N'-(2,6-diisopropylphenyl)urea]	
	99.4	CC(C)c1cccc(C(C)C)c1NC(=O)Nc1nc(-c2ccccc2)n(COCC[Si](C)(C)C)c1-c1ccccc1Cl [Compound 40, N-[5-(2-Chlorophenyl)-2-phenyl-1-(2-trimethylsilyl)ethoxymethylimidazol-4-yl]-N'-(2,6-diisopropylphenyl)urea]	
	99.2	COCn1c(-c2ccccc2)nc(NC(=O)Nc2c(C(C)C)cccc2C(C)C)c1-c1ccccc1Cl [Compound 42, N-[5-(2-Chlorophenyl)-1-methoxymethyl-2-phenylimidazol-4-yl]-N'-(2,6-diisopropylphenyl)urea]	
	99.2	COc1ccc(Cn2c(-c3ccccc3)nc(NC(=O)Nc3c(C(C)C)cccc3C(C)C)c2-c2ccccc2Cl)cc1 [Compound 44, N-[5-(2-Chlorophenyl)-1-(4-methoxybenzyl)-2-phenylimidazol-4-yl]-N'-(2,6-diisopropylphenyl)urea]	
	77.9	CC(C)c1cccc(C(C)C)c1NC(=O)Nc1nc(-c2ccccc2)[nH]c1-c1ccccc1Cl [Compound 45, N-[4(5)-(2-Chlorophenyl)-2-phenylimidazol-5(4)-yl]-N'-(2,6-diisopropylphenyl)urea]	

Second part, the molecule before the results:

Compound	Inhibition rate % ([2]; compound concentration 0.01 µm) [%]	Inhibition rate % [2, 3] [%]	inhibition in vivo at 30 mg/kg [1] [%]
CC(C)c1cccc(C(C)C)c1NC(=O)Nc1sc(-c2ccccc2)nc1-c1ccccc1Cl [Compound 1, N-[4-(2-Chlorophenyl)-2-phenylthiazol-5-yl]-N'-(2,6-diisopropylphenyl)urea]	38.7	99.9	53.8
Cc1ccccc1-c1nc(-c2ccccc2)sc1NC(=O)Nc1c(C(C)C)cccc1C(C)C [Compound 2, N-(2,6-Diisopropylphenyl)-N'-[4-(2-methylphenyl)-2-phenylthiazol-5-yl]urea]	55.2	99.8	85.7
Cc1nc(-c2ccccc2)c(NC(=O)Nc2c(C(C)C)cccc2C(C)C)s1 [Compound 3, N-(2,6-Diisopropylphenyl)-N'-(2-methyl-4-phenylthiazol-5-yl)urea]		92.1	
Cc1nc(-c2ccccc2Cl)c(NC(=O)Nc2c(C(C)C)cccc2C(C)C)s1 [Compound 4, N-[4-(2-Chlorophenyl)-2-methylthiazol-5-yl]-N'-(2,6-diisopropylphenyl)urea]	63.9		
CCc1cccc(CC)c1NC(=O)Nc1sc(C)nc1-c1ccccc1Cl [Compound 5, N-[4-(2-Chlorophenyl)-2-methylthiazol-5-yl]-N'-(2,6-diethylphenyl)urea]		97.8	
Cc1nc(-c2ccccc2Cl)c(NC(=O)Nc2ccc(F)cc2F)s1 [Compound 6, N-[4-(2-Chlorophenyl)-2-methylthiazol-5-yl]-N'-(2,4-difluorophenyl)urea]		46.1	
Cc1nc(-c2ccccc2C)c(NC(=O)Nc2c(C(C)C)cccc2C(C)C)s1 [Compound 8, N-(2,6-DiisopropylphenyI)-N'-[2-methyl-4-(2-methylphenyl)thiazol-5-yl]urea]		99.1	
Cc1nc(-c2ccccc2C)c(NC(=O)Nc2ccc(F)cc2F)s1 [Compound 9, N-(2,4-Difluorophenyl)-N'-[2-methyl-4-(2-methylphenyl)thiazol-5-yl]urea]		49.4	
CCc1nc(-c2ccccc2Cl)c(NC(=O)Nc2c(C(C)C)cccc2C(C)C)s1 [Compound 11, N-[4-(2-Chlorophenyl)-2-ethylthiazol-5-yl]-N'-(2,6-diisopropylphenyl)urea]	42.9	99.2	46.2
CCCCCc1nc(-c2ccccc2Cl)c(NC(=O)Nc2c(C(C)C)cccc2C(C)C)s1 [Compound 12, N-[4-(2-Chlorophenyl)-2-n-pentylthiazol-5-yl]-N'-(2,6-diisopropylphenyl)urea]		96.2	
CC(C)c1cccc(C(C)C)c1NC(=O)Nc1sc(C2CCCCC2)nc1-c1ccccc1Cl [Compound 13, N-[4-(2-Chlorophenyl)-2-cyclohexylthiazol-5-yl]-N'-(2,6-diisopropylphenyl)urea]		72.7	
CC(C)c1cccc(C(C)C)c1NC(=O)Nc1sc(N(C)C)nc1-c1ccccc1Cl [Compound 15, N-[4-(2-Chlorophenyl)-2-dimethylaminothiazol-5-yl]-N'-(2,6-diisopropylphenyl)urea]		99.2	
